Source: ChEMBL document CHEMBL1201862, “PubChem BioAssay data set” (2004)
Active and inactive are the calls of the source.

Legend:
[1] = target: Adenosylmethionine-8-amino-7-oxononanoate aminotransferase (Mycobacterium tuberculosis, UniProt P9WQ81); test: Mycobacterium tuberculosis BioA enzyme inhibitor Measured in Biochemical System Using Plate Reader - 2163-02_Inhibitor_Dose_CherryPick_Activity.; format: functional, Mycobacterium tuberculosis UT205
[2] = target: T1, High affinity choline transporter 1 (Homo sapiens, UniProt Q9GZV3); test: CHT inhibitors, dose response, cell-based, 5-point CRC, membrane potential dye (AID 504840); format: functional
T1 sequence (Q9GZV3 whole entry): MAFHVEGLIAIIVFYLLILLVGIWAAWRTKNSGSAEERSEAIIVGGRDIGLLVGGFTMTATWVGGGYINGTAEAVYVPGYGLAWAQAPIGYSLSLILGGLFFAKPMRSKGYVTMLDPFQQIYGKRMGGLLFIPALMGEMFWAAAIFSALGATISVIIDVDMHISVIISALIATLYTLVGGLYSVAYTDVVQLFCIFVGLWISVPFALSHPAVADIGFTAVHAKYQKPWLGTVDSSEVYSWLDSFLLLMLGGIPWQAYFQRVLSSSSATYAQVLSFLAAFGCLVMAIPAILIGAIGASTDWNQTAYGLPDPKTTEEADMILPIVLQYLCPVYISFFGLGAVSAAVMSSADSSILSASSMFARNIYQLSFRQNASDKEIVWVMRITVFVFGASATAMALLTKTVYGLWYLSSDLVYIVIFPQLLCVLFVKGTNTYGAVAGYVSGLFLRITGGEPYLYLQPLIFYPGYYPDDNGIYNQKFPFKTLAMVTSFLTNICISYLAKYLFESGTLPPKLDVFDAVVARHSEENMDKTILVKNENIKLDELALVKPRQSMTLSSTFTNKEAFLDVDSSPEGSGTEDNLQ

[3] = target: T1, High affinity choline transporter 1; test: CHT inhibitors, dose response, cell-based, 10-point CRC, membrane potential dye (AID 588401); format: functional;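 note: membrane potential dye fluorescence of choline-evoked depolarization via CHT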
[4] = HEp-2 cell cytotoxicity, dose response, cytotoxicity control for RSV inhibitor project, HTS (AID 2410); format: functional; conditions: human respiratory syncytial virus
[5] = tested on: CHO-K1; test: Counterscreen for antagonists of the orexin 1 receptor (OX1R; HCRTR1): Homogeneous time resolved fluorescence (HTRF)-based cell-based dose response assay to identify antagonists of the parental CHO-K1 cell line. [Related pubchem assays (depositor defined):AID434989, AID435008, AID463079, AID485270, AID492963, AID492964, AID492965, AID493232, AID504699, AID504701]; format: functional; conditions: Cricetulus griseus;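 note: potency for inhibition of ATP-stimulated IP1 production as antagonists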
[6] = Counterscreen for antagonists of the orexin 1 receptor (OX1R; HCRTR1): Fluorescence-based cell-based high throughput dose response assay to identify antagonists of the parental CHO cell line. [Related pubchem assays (depositor defined):AID434989, AID435008, AID463079, AID485270, AID492963, AID492964, AID492965, AID493232, AID504699, AID504701]; format: functional
[7] = target: T2, Orexin/Hypocretin receptor type 1 (Homo sapiens, UniProt O43613); test: Homogeneous Time Resolved Fluorescence (HTRF)-based cell-based high throughput dose response assay for antagonists of the orexin 1 receptor (OX1R; HCRTR1). [Related pubchem assays (depositor defined):AID434989, AID435008, AID463079, AID485270, AID492963, AID492964, AID492965, AID493232, AID504717, AID504718]; format: functional
T2 sequence (O43613 whole entry): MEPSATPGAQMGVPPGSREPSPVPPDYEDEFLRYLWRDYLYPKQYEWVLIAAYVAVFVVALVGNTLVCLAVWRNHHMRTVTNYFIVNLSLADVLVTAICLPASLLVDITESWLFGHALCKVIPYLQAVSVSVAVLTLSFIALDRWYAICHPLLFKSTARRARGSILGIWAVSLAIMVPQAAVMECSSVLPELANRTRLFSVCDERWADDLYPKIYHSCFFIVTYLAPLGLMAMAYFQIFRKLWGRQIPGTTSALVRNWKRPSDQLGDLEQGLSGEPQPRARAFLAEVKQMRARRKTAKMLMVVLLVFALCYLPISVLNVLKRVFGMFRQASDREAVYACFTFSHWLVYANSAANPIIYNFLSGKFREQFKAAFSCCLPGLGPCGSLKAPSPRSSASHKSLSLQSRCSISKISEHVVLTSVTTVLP

[8] = target: T2, Orexin/Hypocretin receptor type 1; test: Fluorescence-based cell-based high throughput dose response assay for antagonists of the orexin 1 receptor (OX1R; HCRTR1). [Related pubchem assays (depositor defined):AID434989, AID435008, AID463079, AID485270, AID492963, AID492964, AID492965, AID493232, AID504717, AID504718]; format: functional
[9] = target: T3, Orexin receptor type 2 (Homo sapiens, UniProt O43614); test: Counterscreen assay for antagonists of the orexin 1 receptor (OX1R; HCRTR1): Fluorescence-based cell-based dose response assay for antagonists of the orexin 2 receptor (OX2R; HCRTR2), run by assay provider.; format: functional
T3 sequence (O43614 whole entry): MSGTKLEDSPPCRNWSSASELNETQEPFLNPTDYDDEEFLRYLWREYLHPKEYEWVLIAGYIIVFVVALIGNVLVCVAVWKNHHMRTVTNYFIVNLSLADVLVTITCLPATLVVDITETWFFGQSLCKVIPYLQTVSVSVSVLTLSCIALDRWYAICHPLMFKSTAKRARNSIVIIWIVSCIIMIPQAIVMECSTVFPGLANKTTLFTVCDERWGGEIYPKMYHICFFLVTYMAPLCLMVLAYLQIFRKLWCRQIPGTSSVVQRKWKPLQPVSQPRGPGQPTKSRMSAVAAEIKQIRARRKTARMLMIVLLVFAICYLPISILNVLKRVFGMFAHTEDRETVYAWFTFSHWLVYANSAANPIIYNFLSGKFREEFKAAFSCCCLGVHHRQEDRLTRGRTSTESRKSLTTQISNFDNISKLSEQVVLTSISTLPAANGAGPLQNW

[10] = target: T3, Orexin receptor type 2; test: Counterscreen assay for antagonists of the orexin 1 receptor (OX1R; HCRTR1): Homogeneous Time Resolved Fluorescence (HTRF)-based cell-based dose response assay for antagonists of the orexin 2 receptor (OX2R; HCRTR2), run by assay provider.; format: functional
[11] = cells
[12] = target: Potassium voltage-gated channel subfamily KQT member 2 (Rattus norvegicus, UniProt O88943); test: KCNQ2 potassium channel inhibitors, dose response, cell-based, automated electrophysiology, set II, rat KCNQ2 (AID 588637); format: functional
[13] = tested on: H9c2; test: cells; format: functional, cell-based; conditions: Rattus norvegicus, H9c2, Myocardium;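 note: confirmatory concentration-response retest of ultra-high-throughput screening hits for modulation of myocardial damage; cell death induced by hydrogen peroxide oxidative stress; compound pretreatment for 60 min then peroxide exposure for 2 h; potency is for protecting the cells against peroxide damage rather than for killing them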
[14] = Shn3 3'UTR reporter inhibitors, dose response, cell-based, Clone20 osteoblasts, firefly luciferase, cherry-picked (AID 624132); format: functional;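 note: firefly luciferase luminescence from reporter carrying the Shn3 3'UTR in osteoblasts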
[15] = HepG2 cell cytotoxicity, dose response, cytotoxicity control for Shn3 inhibitor project, CellTiter-Glo, cherry-picked (AID 624134); format: functional, cell-based
[16] = control 3'UTR Renilla luciferase suppression, dose response, counter-screen for Shn3 inhibitor project, cell-based, Clone20-Shn3RL, cherry-picked (AID 624133); format: functional
[17] = target: Protein Wnt-3a (Mus musculus, UniProt P27467); test: Wnt3a-driven reporter signaling inhibition, dose response, selectivity assay for Gli-SUFU antagonist project, Wnt-LIGHT cells, luminescence (AID 651570); format: functional; conditions: read-out: IC50_Mean;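 note: Wnt-LIGHT reporter cells stimulated with conditioned medium from Wnt3a-producing cells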
[18] = target: T4, Apoptotic protease-activating factor 1 (Homo sapiens, UniProt O14727); test: SAR analysis of small molecule Activators of Apaf-1 in a Fluorescent assay.; format: functional; conditions: read-out: EC50_Mean;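 note: caspase-3 cleavage of fluorogenic Rh110 DEVD substrate downstream of apoptosome activation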
T4 sequence (O14727 whole entry): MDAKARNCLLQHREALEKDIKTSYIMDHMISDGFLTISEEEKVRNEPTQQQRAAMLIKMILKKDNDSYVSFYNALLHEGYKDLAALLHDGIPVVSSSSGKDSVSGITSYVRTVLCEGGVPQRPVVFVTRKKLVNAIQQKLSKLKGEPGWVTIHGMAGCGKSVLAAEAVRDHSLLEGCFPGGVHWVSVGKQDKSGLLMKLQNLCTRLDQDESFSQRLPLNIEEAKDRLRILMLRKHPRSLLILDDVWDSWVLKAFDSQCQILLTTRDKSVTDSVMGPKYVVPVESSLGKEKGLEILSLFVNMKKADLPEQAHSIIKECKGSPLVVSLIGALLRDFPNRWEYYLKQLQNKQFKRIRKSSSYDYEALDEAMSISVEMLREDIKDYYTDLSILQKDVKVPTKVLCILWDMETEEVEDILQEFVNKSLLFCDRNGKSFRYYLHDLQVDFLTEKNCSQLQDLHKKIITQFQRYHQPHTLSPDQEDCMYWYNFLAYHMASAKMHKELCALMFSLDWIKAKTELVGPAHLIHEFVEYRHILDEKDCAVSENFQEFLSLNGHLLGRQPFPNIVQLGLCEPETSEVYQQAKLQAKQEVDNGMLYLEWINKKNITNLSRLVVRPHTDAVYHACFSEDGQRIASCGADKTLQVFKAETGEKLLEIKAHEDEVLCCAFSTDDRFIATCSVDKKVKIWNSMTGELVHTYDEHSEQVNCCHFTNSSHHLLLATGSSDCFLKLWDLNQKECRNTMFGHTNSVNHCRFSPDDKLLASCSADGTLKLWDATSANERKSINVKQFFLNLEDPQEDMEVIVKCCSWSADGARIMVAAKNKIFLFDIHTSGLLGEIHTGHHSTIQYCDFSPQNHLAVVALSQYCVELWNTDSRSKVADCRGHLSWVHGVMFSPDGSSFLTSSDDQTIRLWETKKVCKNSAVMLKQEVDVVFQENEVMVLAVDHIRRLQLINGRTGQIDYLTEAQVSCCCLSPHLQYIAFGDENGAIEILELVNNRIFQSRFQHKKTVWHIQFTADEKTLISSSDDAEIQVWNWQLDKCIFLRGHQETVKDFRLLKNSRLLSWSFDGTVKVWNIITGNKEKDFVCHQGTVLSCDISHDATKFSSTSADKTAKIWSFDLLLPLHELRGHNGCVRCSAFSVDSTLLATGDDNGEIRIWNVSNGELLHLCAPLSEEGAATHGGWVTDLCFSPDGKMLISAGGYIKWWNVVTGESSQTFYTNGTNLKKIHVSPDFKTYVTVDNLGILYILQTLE

[19] = tested on: Streptococcus sp. 'group A'; test: growth inhibition of control SK(-) GAS strain, dose response, counter-screen for streptokinase expression inhibitor project, luminescence, kanamycin, BacTiterGlo, confirmation (AID 1900); format: functional, organism-based
[20] = target: T5, Streptokinase A (Streptococcus pyogenes serotype M1, UniProt P10520); test: S. pyogenes streptokinase expression inhibitors, potency, dose response, plasminogen activation absorbance, OD405 (AID 1914); format: functional, Streptococcus pyogenes M1 GAS;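 note: secreted streptokinase activity via plasminogen activation per viability signal from cell pellet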
T5 sequence (P10520 whole entry): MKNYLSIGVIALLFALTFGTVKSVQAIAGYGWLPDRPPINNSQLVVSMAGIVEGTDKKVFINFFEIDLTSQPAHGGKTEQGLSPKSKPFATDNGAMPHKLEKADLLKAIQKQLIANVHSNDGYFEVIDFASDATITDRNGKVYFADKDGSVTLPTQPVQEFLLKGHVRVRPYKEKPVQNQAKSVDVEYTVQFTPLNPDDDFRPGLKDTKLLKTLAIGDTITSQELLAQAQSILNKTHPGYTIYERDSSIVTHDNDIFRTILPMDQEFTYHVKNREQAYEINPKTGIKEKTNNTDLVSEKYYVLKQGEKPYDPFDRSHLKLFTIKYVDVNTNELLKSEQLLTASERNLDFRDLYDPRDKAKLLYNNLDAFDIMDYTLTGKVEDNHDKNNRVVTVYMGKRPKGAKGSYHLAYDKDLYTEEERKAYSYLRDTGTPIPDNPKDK

[21] = tested on: Streptococcus; test: Group A Streptococcus viability loss, dose response, counter-screen for streptokinase expression inhibitor project, luminescence, BacTiterGlo (AID 1915); format: functional, organism-based;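 note: potency for reduction of bacterial viability or growth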
[22] = target: FAD-linked sulfhydryl oxidase ALR (Homo sapiens, UniProt P55789); test: inhibitors of human ALR sulfhydryl oxidase, dose response, biochemical, H2O2 detection, luminescence, cherry-pick (AID 493248)
Chain of FAD-linked sulfhydryl oxidase ALR (P55789 whole entry): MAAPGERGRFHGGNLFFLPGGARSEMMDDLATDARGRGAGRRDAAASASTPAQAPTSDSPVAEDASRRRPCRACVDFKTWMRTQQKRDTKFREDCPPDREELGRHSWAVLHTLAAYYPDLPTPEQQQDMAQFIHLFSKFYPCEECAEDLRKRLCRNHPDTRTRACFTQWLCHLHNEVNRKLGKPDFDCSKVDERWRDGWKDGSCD

Chain of Protein Wnt-3a (P27467 whole entry): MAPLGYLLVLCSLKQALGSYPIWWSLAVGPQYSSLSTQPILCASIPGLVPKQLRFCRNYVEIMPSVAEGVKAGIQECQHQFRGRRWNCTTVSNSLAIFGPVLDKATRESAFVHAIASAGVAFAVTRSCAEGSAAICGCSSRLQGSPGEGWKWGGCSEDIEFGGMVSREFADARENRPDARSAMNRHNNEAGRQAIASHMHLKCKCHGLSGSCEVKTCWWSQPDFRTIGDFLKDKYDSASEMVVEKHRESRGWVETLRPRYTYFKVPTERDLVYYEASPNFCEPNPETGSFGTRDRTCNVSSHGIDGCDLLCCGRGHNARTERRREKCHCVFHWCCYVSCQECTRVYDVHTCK
Chain of Adenosylmethionine-8-amino-7-oxononanoate aminotransferase (P9WQ81 whole entry): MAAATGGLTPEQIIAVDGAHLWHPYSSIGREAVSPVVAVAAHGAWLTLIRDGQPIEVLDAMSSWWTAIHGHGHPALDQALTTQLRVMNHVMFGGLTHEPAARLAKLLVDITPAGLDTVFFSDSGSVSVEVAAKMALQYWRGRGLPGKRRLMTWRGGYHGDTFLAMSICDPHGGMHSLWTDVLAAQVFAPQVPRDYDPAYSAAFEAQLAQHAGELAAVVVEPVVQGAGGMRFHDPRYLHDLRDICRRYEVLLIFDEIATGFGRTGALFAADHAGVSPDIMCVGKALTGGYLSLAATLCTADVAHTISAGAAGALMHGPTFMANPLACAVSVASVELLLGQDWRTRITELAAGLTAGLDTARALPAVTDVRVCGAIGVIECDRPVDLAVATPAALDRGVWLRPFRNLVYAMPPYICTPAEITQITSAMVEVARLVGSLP
Chain of Potassium voltage-gated channel subfamily KQT member 2 (O88943 whole entry): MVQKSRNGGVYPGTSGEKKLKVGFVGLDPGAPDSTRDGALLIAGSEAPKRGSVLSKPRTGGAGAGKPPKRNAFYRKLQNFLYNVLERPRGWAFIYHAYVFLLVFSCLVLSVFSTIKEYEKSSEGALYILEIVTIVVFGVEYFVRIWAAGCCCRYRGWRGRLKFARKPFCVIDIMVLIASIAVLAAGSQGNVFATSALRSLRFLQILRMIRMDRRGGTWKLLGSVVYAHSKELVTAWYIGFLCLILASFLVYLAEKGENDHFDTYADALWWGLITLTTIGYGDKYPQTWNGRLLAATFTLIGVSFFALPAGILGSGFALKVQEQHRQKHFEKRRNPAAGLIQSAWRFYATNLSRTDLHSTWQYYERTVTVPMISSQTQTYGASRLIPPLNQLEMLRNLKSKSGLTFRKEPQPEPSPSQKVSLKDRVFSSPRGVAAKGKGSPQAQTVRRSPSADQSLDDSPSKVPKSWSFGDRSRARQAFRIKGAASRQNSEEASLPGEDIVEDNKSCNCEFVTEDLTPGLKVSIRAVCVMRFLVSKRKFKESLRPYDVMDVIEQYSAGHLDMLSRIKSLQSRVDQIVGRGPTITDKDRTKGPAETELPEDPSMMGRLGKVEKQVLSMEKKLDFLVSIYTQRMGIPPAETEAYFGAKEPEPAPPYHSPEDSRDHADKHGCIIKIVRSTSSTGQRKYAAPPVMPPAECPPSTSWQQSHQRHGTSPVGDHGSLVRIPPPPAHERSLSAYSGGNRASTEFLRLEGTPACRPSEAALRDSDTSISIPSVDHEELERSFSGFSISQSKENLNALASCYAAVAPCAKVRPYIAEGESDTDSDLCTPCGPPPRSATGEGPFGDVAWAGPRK

Cc1c2cnn(CC(=O)NCc3ccccn3)c(=O)c2c(C)n1Cc1ccc(Cl)cc1
AC50 [1]: 2.49 µM (active)

Cc1ccc(C(C)N=C(S)NC2CCCCC2)cc1C (stereo unspecified)
IC50 [2]: 8 µM (active) | IC50 [3]: 3.36 µM (active)

O=C(NC(Cc1c[nH]c2ccccc12)C(=O)N/N=C/c1ccc(Cl)cc1)c1cccs1 (stereo unspecified)
CC50 [4]: 14.7 µM (active) | IC50 [5]: > 66.2 µM (inactive) | IC50 [6]: > 49.8 µM (inactive) | IC50 [7]: 3.28 µM (active) | IC50 [8]: 8.68 µM (active) | IC50 [9]: 24 µM (inactive) | IC50 [10]: > 50 µM (inactive) | IC50 [11]: 10.9 µM (active)

CCC(CC)C(=O)N(CCc1ccc(OC)cc1)Cc1nc(O)c2ccccc2n1
IC50 [12]: 12.4 µM (active) | IC50 [13]: > 79 µM (inactive)

Cc1nn(-c2ccccc2)c2nc(N)c(C#N)c(-c3ccc(O)c(O)c3)c12
CC50 [4]: 17.4 µM (active) | IC50 [5]: > 66.2 µM (inactive) | IC50 [6]: 36.2 µM (inactive) | IC50 [7]: 9.34 µM (active) | IC50 [8]: > 5.53 µM (active) | IC50 [9]: > 88.8 µM (inactive) | IC50 [10]: > 50 µM (inactive)

C[C@@H]1COC(=O)[C@@H](NC(=O)OCC2c3ccccc3-c3ccccc32)C/C=C\C[C@@H](CC(=O)N(CCO)Cc2ccccc2)C(=O)N1
AC50 [14]: 1.89 µM (active) | AC50 [15]: > 70 µM (inactive) | AC50 [16]: 3.59 µM (active) | IC50 [17]: 3.34 µM (active)

CC(=O)c1ccc(N2C(=O)CC3(CC(c4ccc(Cl)cc4)=NO3)C2=O)cc1 (stereo unspecified)
EC50 [18]: > 100 µM (inactive)

N#C/C(=N\Nc1ccc(Cl)cc1)C(N)=S
EC50 [19]: > 150 µM (not active) | EC50 [20]: > 150 µM (not active) | EC50 [21]: > 150 µM (not active) | AC50 [22]: 7.86 µM (active) | IC50 [2]: 5.01 µM (active) | IC50 [3]: 2.04 µM (active)
